According to patent publication US10738057B2, “Tertiary alcohols as PI3K-γ inhibitors” (Incyte Corporation, priority 2017, dated 2020):
pIC50: −log10 of the molar value. Where a name gives a salt, the structure may show the parent alone. Read-outs that look alike come from different tables or passages of the source.

Assays:
[1] = biological target: PI3Kγ (p110γ) Recombinant Human Protein (Homo sapiens (Human), UniProt P48736); test: PI3K-γ scintillation proximity assay; type: biochemical; settings: 20 μM PIP2, 2 μM ATP, 13 nM PI3Kγ, 120 min, room temperature
Procedure, shortened: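 Radiometric SPA in 20 mM MOPS pH 6.7, 10 mM MgCl2, 5 mM DTT, 0.03% CHAPS, 2% DMSO. Stopped with EDTA and WGA SPA beads for scintillation counting. IC50 fitted from % solvent-control activity versus log concentration.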

[2] = test system: Phosphorylated Ribosomal Protein S6 (RPS6) in THP-1 cells; test: THP-1 RPS6 ELISA assay; type: cell-based, Human; settings: Homo sapiens, THP-1, THP-1 cells, serum starved, 2 h compound, 10 nM MCP-1 for 15 min, phospho-RPS6 ELISA; read-out: PI3Kγ_THP1_RPS6_ELISA IC50
Procedure, shortened: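 Phospho-RPS6 in lysates measured by ELISA at 450 nm, corrected at 540 nm, after MCP-1 challenge (10 nM, 15 min) of THP-1 cells that were starved overnight and exposed to test compound for 2 h at 37° C, 2×10^5 cells/well. Curve fit of percent inhibition gives IC50.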

[3] = biological target: PI3Kδ (p110δ/p85α) Recombinant Human Protein (Homo sapiens (Human), UniProt O00329); test: PI3Kδ scintillation proximity assay; type: biochemical; settings: 20 μM PIP2, 2 μM ATP, 3.4 nM PI3Kδ, 120 min, room temperature; for pIC50: read-out: PI3Kδ IC50
Procedure, shortened: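 Recombinant human p110δ/p85α was run at room temperature in 20 mM MOPS pH 6.7, 10 mM MgCl2, 5 mM DTT, 0.03% CHAPS, 2% DMSO. Substrates were 20 µM PIP2 and 2 µM ATP with [γ-33P]ATP. Product was captured overnight on WGA SPA beads and counted by scintillation; IC50 fitted from percent of solvent control versus log concentration.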

Chain of PI3Kδ (p110δ/p85α) Recombinant Human Protein (O00329 whole entry): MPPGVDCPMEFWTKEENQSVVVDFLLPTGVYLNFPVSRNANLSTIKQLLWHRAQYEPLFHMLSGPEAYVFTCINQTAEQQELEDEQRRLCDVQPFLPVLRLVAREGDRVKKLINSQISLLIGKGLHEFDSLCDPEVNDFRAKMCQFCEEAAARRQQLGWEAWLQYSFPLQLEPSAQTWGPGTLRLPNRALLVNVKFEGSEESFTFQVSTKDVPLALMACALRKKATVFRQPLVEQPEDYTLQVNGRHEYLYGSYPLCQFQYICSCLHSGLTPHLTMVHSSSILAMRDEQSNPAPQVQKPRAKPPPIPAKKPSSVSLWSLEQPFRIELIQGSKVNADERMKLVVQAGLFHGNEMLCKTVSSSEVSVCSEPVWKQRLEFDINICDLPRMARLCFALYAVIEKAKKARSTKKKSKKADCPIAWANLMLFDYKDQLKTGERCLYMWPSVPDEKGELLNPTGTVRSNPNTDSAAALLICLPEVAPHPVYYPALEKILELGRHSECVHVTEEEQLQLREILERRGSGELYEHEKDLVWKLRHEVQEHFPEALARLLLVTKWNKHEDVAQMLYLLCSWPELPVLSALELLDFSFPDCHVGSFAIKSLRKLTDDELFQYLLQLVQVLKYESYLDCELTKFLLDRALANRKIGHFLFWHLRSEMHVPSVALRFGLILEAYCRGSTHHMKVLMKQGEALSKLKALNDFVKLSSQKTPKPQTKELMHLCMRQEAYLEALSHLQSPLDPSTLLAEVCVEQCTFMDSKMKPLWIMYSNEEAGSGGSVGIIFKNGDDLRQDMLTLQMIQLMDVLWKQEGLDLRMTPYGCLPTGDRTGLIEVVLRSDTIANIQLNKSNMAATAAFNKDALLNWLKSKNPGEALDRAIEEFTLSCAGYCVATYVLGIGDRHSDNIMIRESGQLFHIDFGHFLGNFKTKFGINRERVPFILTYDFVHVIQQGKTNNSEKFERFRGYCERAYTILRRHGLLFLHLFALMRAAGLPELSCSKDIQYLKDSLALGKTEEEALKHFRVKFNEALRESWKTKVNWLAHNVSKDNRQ
Chain of PI3Kδ (p110δ/p85α) Recombinant Human Protein (P27986 whole entry partner): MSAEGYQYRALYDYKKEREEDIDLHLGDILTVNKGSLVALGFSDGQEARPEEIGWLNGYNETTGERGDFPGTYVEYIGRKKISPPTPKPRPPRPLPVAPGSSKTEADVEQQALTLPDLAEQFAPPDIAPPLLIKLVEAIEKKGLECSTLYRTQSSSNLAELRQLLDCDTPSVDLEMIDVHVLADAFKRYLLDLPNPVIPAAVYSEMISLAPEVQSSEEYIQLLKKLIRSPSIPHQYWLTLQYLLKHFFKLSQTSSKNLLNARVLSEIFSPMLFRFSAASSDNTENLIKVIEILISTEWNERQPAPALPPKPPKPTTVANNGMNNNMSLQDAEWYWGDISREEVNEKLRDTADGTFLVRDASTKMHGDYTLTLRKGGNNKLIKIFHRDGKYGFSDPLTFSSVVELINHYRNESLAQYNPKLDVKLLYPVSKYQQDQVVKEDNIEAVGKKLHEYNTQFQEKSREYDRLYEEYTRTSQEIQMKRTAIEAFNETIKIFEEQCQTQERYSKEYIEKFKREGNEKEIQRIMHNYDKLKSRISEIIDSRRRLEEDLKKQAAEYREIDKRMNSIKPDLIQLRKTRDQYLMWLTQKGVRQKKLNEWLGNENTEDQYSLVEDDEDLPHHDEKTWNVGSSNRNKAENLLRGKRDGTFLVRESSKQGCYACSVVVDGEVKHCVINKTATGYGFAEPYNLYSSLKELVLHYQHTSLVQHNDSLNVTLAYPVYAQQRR
Chain of PI3Kγ (p110γ) Recombinant Human Protein (P48736 whole entry): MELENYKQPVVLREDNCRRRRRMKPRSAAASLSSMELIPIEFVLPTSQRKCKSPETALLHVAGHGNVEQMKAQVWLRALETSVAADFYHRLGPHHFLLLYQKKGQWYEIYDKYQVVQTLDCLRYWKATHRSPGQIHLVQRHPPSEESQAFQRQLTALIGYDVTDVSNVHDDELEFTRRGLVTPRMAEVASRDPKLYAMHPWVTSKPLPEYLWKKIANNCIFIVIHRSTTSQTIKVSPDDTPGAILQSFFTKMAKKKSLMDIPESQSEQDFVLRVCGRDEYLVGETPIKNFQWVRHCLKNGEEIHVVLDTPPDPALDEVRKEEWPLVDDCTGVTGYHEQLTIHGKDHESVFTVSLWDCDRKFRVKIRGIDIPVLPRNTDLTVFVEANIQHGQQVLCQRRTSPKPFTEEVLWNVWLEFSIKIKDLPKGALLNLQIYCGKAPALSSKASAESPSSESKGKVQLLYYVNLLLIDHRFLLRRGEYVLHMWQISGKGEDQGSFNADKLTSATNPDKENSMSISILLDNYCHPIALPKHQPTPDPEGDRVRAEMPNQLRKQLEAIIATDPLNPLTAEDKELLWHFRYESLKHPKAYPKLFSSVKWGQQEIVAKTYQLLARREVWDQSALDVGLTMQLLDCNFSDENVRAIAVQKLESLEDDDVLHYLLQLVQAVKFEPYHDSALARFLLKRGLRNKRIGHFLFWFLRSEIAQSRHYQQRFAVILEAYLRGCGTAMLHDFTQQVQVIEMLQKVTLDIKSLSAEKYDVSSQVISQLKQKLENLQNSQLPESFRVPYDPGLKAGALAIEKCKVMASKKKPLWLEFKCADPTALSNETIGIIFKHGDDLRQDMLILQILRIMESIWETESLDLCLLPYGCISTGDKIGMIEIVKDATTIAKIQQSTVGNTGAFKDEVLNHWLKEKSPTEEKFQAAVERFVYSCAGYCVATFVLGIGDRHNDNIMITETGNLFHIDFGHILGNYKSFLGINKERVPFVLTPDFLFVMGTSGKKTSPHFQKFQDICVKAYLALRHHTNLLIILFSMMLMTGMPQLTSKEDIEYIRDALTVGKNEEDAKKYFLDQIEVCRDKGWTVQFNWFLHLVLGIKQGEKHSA

Cc1ccc(C(C)(O)C(F)(F)F)cc1-c1cnc2c(N)nc(C(F)(F)F)nn12 (stereo not drawn) [Example 1, 2-(3-(4-Amino-2-(trifluoromethyl)imidazo[2,1-f][1,2,4]triazin-7-yl)-4-methylphenyl)-1,1,1-trifluoropropan-2-ol]
pIC50 [1]: > 7.00
pIC50 [2]: 6.30 to 7.00
pIC50 [3]: 6.30 to 7.00

Cc1nc(N)c2ncc(-c3cc(C(C)(O)C(F)(F)F)ccc3C)n2n1 (stereo not drawn) [Example 2, 2-(3-(4-Amino-2-methylimidazo[2,1-f][1,2,4]triazin-7-yl)-4-methylphenyl)-1,1,1-trifluoropropan-2-ol]
pIC50 [1]: > 7.00
pIC50 [2]: 6.00 to 6.30
pIC50 [3]: 5.70 to 6.30

Cc1ccc(C(C)(O)C(F)(F)F)cc1-c1cnc2c(N)nc(C(F)(F)F)cn12 (stereo not drawn) [Example 4, 2-(3-(8-Amino-6-(trifluoromethyl)imidazo[1,2-a]pyrazin-3-yl)-4-methylphenyl)-1,1,1-trifluoropropan-2-ol]
pIC50 [1]: > 7.00
pIC50 [2]: 6.30 to 7.00
pIC50 [3]: 6.30 to 7.00

COC(=O)c1cn2c(-c3cc(C(C)(O)C(F)(F)F)ccc3C)cnc2c(N)n1 (stereo not drawn) [Example 8, Methyl 8-amino-3-(2-methyl-5-(1,1,1-trifluoro-2-hydroxypropan-2-yl)phenyl)imidazo[1,2-a]pyrazine-6-carboxylate]
pIC50 [1]: > 7.00
pIC50 [2]: 6.00 to 6.30
pIC50 [3]: 5.70 to 6.30

CNC(=O)c1cn2c(-c3cc(C(C)(O)C(F)(F)F)ccc3C)cnc2c(N)n1 (stereo not drawn) [Example 9, 8-Amino-N-methyl-3-(2-methyl-5-(1,1,1-trifluoro-2-hydroxypropan-2-yl)phenyl)imidazo[1,2-a]pyrazine-6-carboxamide]
pIC50 [1]: > 7.00
pIC50 [2]: 6.30 to 7.00
pIC50 [3]: 6.30 to 7.00

Cc1ccc(C(C)(O)C(F)(F)F)cc1-c1cnc2c(N)nc(-c3ccnc(CO)c3)cn12 (stereo not drawn) [Example 10, 2-(3-(8-Amino-6-(2-(hydroxymethyl)pyridin-4-yl)imidazo[1,2-a]pyrazin-3-yl)-4-methylphenyl)-1,1,1-trifluoropropan-2-ol]
pIC50 [1]: > 7.00
pIC50 [2]: 6.30 to 7.00
pIC50 [3]: > 7.00

Cc1ccc(C(O)(c2nnnn2C)C(F)(F)F)cc1-c1cnc2c(N)nc(C(F)(F)F)cn12 (stereo not drawn) [Example 13, 1-(3-(8-Amino-6-(trifluoromethyl)imidazo[1,2-a]pyrazin-3-yl)-4-methylphenyl)-2,2,2-trifluoro-1-(1-methyl-1H-tetrazol-5-yl)ethan-1-ol trifluoroacetate]
pIC50 [1]: > 7.00
pIC50 [2]: 6.30 to 7.00
pIC50 [3]: 6.30 to 7.00

CNCCC(O)(c1ccc(C)c(-c2cnc3c(N)nc(C(F)(F)F)cn23)c1)C(F)(F)F (stereo not drawn) [Example 14, 2-(3-(8-Amino-6-(trifluoromethyl)imidazo[1,2-a]pyrazin-3-yl)-4-methylphenyl)-1,1,1-trifluoro-4-(methylamino)butan-2-ol bis(2,2,2-trifluoroacetate)]
pIC50 [1]: > 7.00
pIC50 [2]: > 7.00
IC50 ([3]; PI3Kδ IC50 (nM)): 100 to 500 nM

Cc1ccc(C(O)(CCO)C(F)(F)F)cc1-c1cnc2c(N)nc(C(F)(F)F)cn12 (stereo not drawn) [Example 18, 3-(3-(8-Amino-6-(trifluoromethyl)imidazo[1,2-a]pyrazin-3-yl)-4-methylphenyl)-4,4,4-trifluorobutane-1,3-diol]
pIC50 [1]: > 7.00
pIC50 [2]: 6.30 to 7.00
pIC50 [3]: 6.30 to 7.00

Cc1ccc(C(O)(C2CC2)C(F)(F)F)cc1-c1cnc2c(N)nc(C(F)(F)F)cn12 (stereo not drawn) [Example 19, 1-(3-(8-Amino-6-(trifluoromethyl)imidazo[1,2-a]pyrazin-3-yl)-4-methylphenyl)-1-cyclopropyl-2,2,2-trifluoroethan-1-ol]
pIC50 [1]: > 7.00
pIC50 [2]: < 6.00
pIC50 [3]: 6.30 to 7.00

Cc1ccc(C(C)(O)C(F)(F)F)cc1-c1cnc2c(N)nc(-c3cnc(C4CC4)s3)cn12 (stereo not drawn) [Example 20, 2-(3-(8-Amino-6-(2-cyclopropylthiazol-5-yl)imidazo[1,2-a]pyrazin-3-yl)-4-methylphenyl)-1,1,1-trifluoropropan-2-ol, TFA]
pIC50 [1]: > 7.00
pIC50 [2]: 6.30 to 7.00
pIC50 [3]: > 7.00

COc1cnc(-c2cn3c(-c4cc(C(C)(O)C(F)(F)F)ccc4C)cnc3c(N)n2)s1 (stereo not drawn) [Example 21, 2-(3-(8-Amino-6-(5-methoxythiazol-2-yl)imidazo[1,2-a]pyrazin-3-yl)-4-methylphenyl)-1,1,1-trifluoropropan-2-ol, TFA]
pIC50 [1]: > 7.00
pIC50 [2]: 6.30 to 7.00
pIC50 [3]: > 7.00

Cc1cc(CNC(=O)c2cn3c(-c4cc(C(C)(O)C(F)(F)F)ccc4C)cnc3c(N)n2)on1 (stereo not drawn) [Example 22, 8-Amino-3-(2-methyl-5-(1,1,1-trifluoro-2-hydroxypropan-2-yl)phenyl)-N-((3-methylisoxazol-5-yl)methyl)imidazo[1,2-a]pyrazine-6-carboxamide, TFA]
pIC50 [1]: > 7.00
pIC50 [2]: 6.30 to 7.00
pIC50 [3]: > 7.00

Cc1ccc(C(O)C(F)(F)F)cc1-c1cnc2c(N)nc(C(F)(F)F)cn12 (stereo not drawn) [Example 23, 1-(3-(8-Amino-6-(trifluoromethyl)imidazo[1,2-a]pyrazin-3-yl)-4-methylphenyl)-2,2,2-trifluoroethan-1-ol trifluoroacetate salt]
pIC50 [1]: > 7.00
pIC50 [2]: 6.00 to 6.30
pIC50 [3]: 5.70 to 6.30

Cc1ncc(-c2cn3c(-c4cc(C(C)(O)C(F)F)ccc4C)cnc3c(N)n2)o1 (stereo not drawn) [Example 28, 2-(3-(8-Amino-6-(2-methyloxazol-5-yl)imidazo[1,2-a]pyrazin-3-yl)-4-methylphenyl)-1,1-difluoropropan-2-ol]
pIC50 [1]: > 7.00
pIC50 [2]: 6.30 to 7.00
pIC50 [3]: > 7.00

Cc1ccc(C(C)(O)C(F)F)cc1-c1cnc2c(N)nc(-c3cc(C(N)=O)ccc3F)cn12 (stereo not drawn) [Example 31, 3-(8-Amino-3-(5-(1,1-difluoro-2-hydroxypropan-2-yl)-2-methylphenyl)imidazo[1,2-a]pyrazin-6-yl)-4-fluorobenzamide]
pIC50 [1]: > 7.00
pIC50 [2]: 6.30 to 7.00
pIC50 [3]: 6.30 to 7.00

COc1ncccc1-c1cn2c(-c3cc(C(C)(O)C(F)F)ccc3C)cnc2c(N)n1 (stereo not drawn) [Example 33, 2-(3-(8-Amino-6-(2-methoxypyridin-3-yl)imidazo[1,2-a]pyrazin-3-yl)-4-methylphenyl)-1,1-difluoropropan-2-ol]
pIC50 [1]: > 7.00
pIC50 [2]: > 7.00
pIC50 [3]: 6.30 to 7.00

Cc1ncc(-c2cn3c(-c4cc(C(C)(O)C(F)F)ccc4C)cnc3c(N)n2)s1 (stereo not drawn) [Example 34, 2-(3-(8-Amino-6-(2-methylthiazol-5-yl)imidazo[1,2-a]pyrazin-3-yl)-4-methylphenyl)-1,1-difluoropropan-2-ol]
pIC50 [1]: > 7.00
pIC50 [2]: 6.30 to 7.00
pIC50 [3]: > 7.00

Cc1ccc(C(C)(O)C(F)F)cc1-c1cnc2c(N)nc(-c3ccnc(C)c3F)cn12 (stereo not drawn) [Example 35, 2-(3-(8-Amino-6-(3-fluoro-2-methylpyridin-4-yl)imidazo[1,2-a]pyrazin-3-yl)-4-methylphenyl)-1,1-difluoropropan-2-ol]
pIC50 [1]: > 7.00
pIC50 [2]: > 7.00
pIC50 [3]: > 7.00

Cc1ccc(C(C)(O)C(F)F)cc1-c1cnc2c(N)nc(-c3cnn(C)c3C)cn12 (stereo not drawn) [Example 36, 2-(3-(8-Amino-6-(1,5-dimethyl-1H-pyrazol-4-yl)imidazo[1,2-a]pyrazin-3-yl)-4-methylphenyl)-1,1-difluoropropan-2-ol]
pIC50 [1]: > 7.00
pIC50 [2]: 6.30 to 7.00
pIC50 [3]: > 7.00

Cc1ccc(C(C)(O)C(F)F)cc1-c1cnc2c(N)nc(-c3cnn(C)c3)cn12 (stereo not drawn) [Example 37, 2-(3-(8-Amino-6-(1-methyl-1H-pyrazol-4-yl)imidazo[1,2-a]pyrazin-3-yl)-4-methylphenyl)-1,1-difluoropropan-2-ol]
pIC50 [1]: > 7.00
pIC50 [2]: > 7.00
pIC50 [3]: > 7.00
